Measurements taken from patent publication US5550121A, “Aminoalkylpyrrolidinylthiocarbapenem derivatives” (priority 1991, dated 1996).
Converted amounts (≈) assume the structure as drawn. Read-outs that look alike come from different tables or passages of the source. Blank lines part the entries; values can stand above or below the molecule they belong to.

Assays:
P. aeruginosa MB5002 = assay: in vitro antibacterial activity by agar plate dilution method (MIC); type: cell-based; settings: Pseudomonas aeruginosa, read-out: Minimum Inhibitory Concentration (MIC)
Method: (§1) One platinum loopful of each test microorganism incubated overnight in Mueller Hinton broth, was inoculated to Mueller Hinton agar (inoculum size: 10^6 CFU/ml). Such culture media contained antibacterial agents in various concentrations. After incubation at 37° C. for 16 hours, the minimum inhibitory concentrations (MIC: μg/ml) were measured.
(§2) The minimum inhibitory concentrations and the DHP-I susceptibility of the compounds of the present invention were compared with imipenem and the compound of REFERENCE EXAMPLE 13.

P. aeruginosa MB5178 = assay: as above; type: cell-based; settings: Pseudomonas aeruginosa, MB5178, 16 h, read-out: Minimum Inhibitory Concentration (MIC)
Method: as §1, §2

[1] = Pharmacokinetics in mice after s.c. dosing, bioassay of plasma and urine; settings: mouse, sc, 20 mg/kg; for AUC / Cmax / Tmax / half-life: plasma; for dose excreted at 6 h: urine
Method: Pharmacokinetics in mice: Groups of three 20 g ddY male mice were given a single dose of 20 mg/kg of the compound of EXAMPLE 19 and imipenem by sc route. One group of three mice was placed in a metabolism cage designed to collect the urine free from fecal contamination. At a specified time after dosing, blood and urine samples were collected from a group for bioassay. The plasma was collected from the pooled blood after centrifugation. Microbiological assays: Bioactivity in the specimens was measured was by the standard disk diffusion procedure using Bacillus subtilis ATCC12432 as a test organism.

[2] = test system: renal dehydropeptidase I (DHP-I); assay: DHP-I susceptibility (method by Kropp et al.), ratio to imipenem; type: in vitro ADME; settings: ratio to imipenem (=1.0); the smaller the value, the higher the stability
Text: Further, the DHP-I susceptibility was quantitatively analyzed by the method by Kropp et al., Antimicrob. Agents Chemother., vol. 22, p. 62-70 (1982), whereby the smaller the numerical value representing the ratio to imipenem (=1.0), the higher the stability.
as §2

[3] = due to the decomposition products; cited from earlier work
[4] = imipenem compared with thienamycin; cited from earlier work
Pseudomonas aeruginosa = settings: superior to thienamycin; cited from earlier work
[5] = test system: various gram positive bacteria and gram negative bacteria; settings: cited from earlier work
[6] = test system: highly methicillin resistant Staphylococcus aureus which is resistant to imipenem and imipenem resistant Pseudomonas aeruginosa; settings: clinical field; cited from earlier work
[7] = test system: renal dehydropeptidase I (DHP-I); settings: cited from earlier work
[8] = in vivo; cited from earlier work
[9] = P. aeruginosa MB5002, Mueller Hinton agar, inoculum 10^6 CFU/ml, 37° C., 16 hours
[10] = P. aeruginosa MB5178, Mueller Hinton agar, inoculum 10^6 CFU/ml, 37° C., 16 hours

- MIC (P. aeruginosa MB5002; [9]): 0.78 mg/L (≈ 2.03 µM)
Structure (SMILES): CC(CN)C[C@@H]1C[C@H](SC2=C(C(=O)O)N3C(=O)[C@H]([C@@H](C)O)[C@H]3[C@H]2C)CN1 (single isomer, unassigned) [Example 7]

- MIC (P. aeruginosa MB5002; [9]): 0.78 mg/L (≈ 2.02 µM)
- MIC (P. aeruginosa MB5178; [10]): 1.56 mg/L (≈ 4.05 µM)
Structure (SMILES): C[C@@H](O)[C@H]1C(=O)N2C(C(=O)O)=C(S[C@@H]3CN[C@H](C(O)CCN)C3)[C@H](C)[C@H]12 (single isomer, unassigned) [Example 9]

- MIC (P. aeruginosa MB5002; [9]): 1.56 mg/L (≈ 4.2 µM)
- MIC (P. aeruginosa MB5178; [10]): 3.13 mg/L (≈ 8.43 µM)
Structure (SMILES): C[C@@H](O)[C@H]1C(=O)N2C(C(=O)O)=C(S[C@@H]3CN[C@H](C(O)CN)C3)[C@H](C)[C@H]12 (single isomer, unassigned) [Example 13]

- AUC [1]: 13.8 µg·h/mL
- Cmax [1]: 29 µg/mL
- Tmax [1]: 10.8 min
- half-life [1]: 7.8 min
- dose excreted at 6 h [1]: 62.5%
Structure (SMILES): CNCC[C@@H](O)[C@@H]1C[C@H](SC2=C(C(=O)O)N3C(=O)[C@H]([C@@H](C)O)[C@H]3[C@H]2C)CN1 [Example 19]

Structure (SMILES): C[C@@H](O)[C@H]1C(=O)N2C(C(=O)O)=C(SCCN=CN)C[C@H]12 [Imipenem, (5R,6S,8R)-3-[[2-(formimidoylamino)ethyl]thio]-6-(1-hydroxyethyl)-7-oxo-1-azabicyclo[3.2.0]hept-2-en-2-carboxylic acid monohydrate]
- DHP-I susceptibility [2]: 1.0
- toxicity against the kidney [3]: presents toxicity against the kidney due to the decomposition products
- stability in the solid form or in an aqueous solution [4]: remarkably improved over thienamycin
- AUC [1]: 9.5 µg·h/mL
- Cmax [1]: 21.5 µg/mL
- Tmax [1]: 10.8 min
- half-life [1]: 7.2 min
- dose excreted at 6 h [1]: 21.5%
- antibacterial activities compared with thienamycin (Pseudomonas aeruginosa): 2 to 4 times
- MIC (P. aeruginosa MB5002; MB5002, 16 h): 1.56 mg/L
- MIC (P. aeruginosa MB5178): 25 mg/L
- antibacterial activities compared with thienamycin ([5]; various types of bacteria): equal or higher level than thienamycin
- treating effects against resistant bacteria [6]: does not show adequate treating effects
- decomposition by DHP-I [7]: likely to be decomposed by DHP-I in the human kidney

- DHP-I susceptibility [2]: 0.7
- MIC (P. aeruginosa MB5002; [9]): 6.25 mg/L (≈ 16.3 µM)
- MIC (P. aeruginosa MB5178; [10]): 12.5 mg/L (≈ 32.6 µM)
Structure (SMILES): CC(=O)NC[C@@H]1C[C@H](SC2=C(C(=O)O)N3C(=O)[C@H]([C@@H](C)O)[C@H]3[C@H]2C)CN1 [compound 13, (1R,5S,6S)-2-[(2S,4S)-2-(Acetylaminomethyl)pyrrolidin-4-ylthio]-6-[(1R)-1-hydroxyethyl]-1-methyl-1-carbapen-2-em-3-carboxylic Acid]

Structure (SMILES): C[C@@H](O)[C@H]1C(=O)N2C(C(=O)O)=C(SCCN)C[C@H]12 [thienamycin]
- antibacterial activities ([5]; statement in words, prior art): strong antibacterial activities over a wide range against gram positive bacteria and gram negative bacteria
- recovery rate in the urine [8]: low
- decomposition by DHP-I [7]: likely to be decomposed
